# “Also recorded” adds a separate entry of the source. Like-named read-outs stand apart in the source and are kept apart here.
# Columns and labels:
# Assay type in all cases: cell-based, human
# [1] = system: hPSC-derived neurons; test: Fura-2 Ca2+ imaging; details: 15 s; for intracellular Ca2+ response to glutamate receptor agonists: 100 micromolar agonist (NMDA plus 10 micromolar glycine)
# Protocol: A. Exemplar time-course of Fura 2 fluorescence recording of intracellular Ca^2+ concentration in a neuron derived from hPSCs differentiated using the protocol. At each arrow, the cell was exposed sequentially for 15 s to the following solutions: ECS with high potassium chloride concentration (50 mM, isoosmotically replacing NaCl) to evoke a cell depolarization; […] ECS with low sodium chloride concentration (15 mM final, isoosmotically replaced by sodium isethionate) with 300 microM GABA, ECS containing 100 micromolar NMDA plus 10 micromolar glycine; […] The ratiometric Ca^2+ sensitive dye Fura-2-AM (Molecular Probes, Eugene, Oreg., USA) was used for Ca^2+ imaging experiments. This dye was purchased as a dry powder in 50 μg aliquots. Before use, these aliquots were dissolved in 50 μl DMSO (Sigma) by vortex. They were then incubated at 37° C. for 1 h to ensure the dye was fully dissolved. 1 μl of the 1 mg/ml Fura-2-AM stock was added to 250 μl of normal cell growth media and mixed. Cells on glass coverslips were then added to the well and incubated for 30 min at 37° C. and 5% CO2 in a humidified tissue culture incubator. Both stocks and media containing the dye were stored out of direct light to prevent photo-bleaching of the dye. This incubation allowed for Fura-2-AM to be taken up by the cells, cleaved and turned into the active dye Fura-2. Fura-2-loaded cells were placed in a specialised perfusion chamber, designed to allow direct access of the microscope oil-immersion lens with the bottom of the coverslip, mounted upon an Olympus IX71 equipped with a Cairn monochromator-based fluorescence system (Cairn Instruments, Faversham, UK) and were continuously superfused with ECS. Imaging was performed at room temperature. Fura-2 was alternately excited using fluorescence light emitted from the monochromator at 340 and 380 nm. Images at 510 nm were acquired at 0.33 or 0.2 Hz by a slow-scan CCD camera (Kinetic Imaging Ltd, Nottingham, UK). Solutions, agonists and antagonists were locally applied to the cells using the gravity-driven rapid solution changer. Raw data, in the form of emission intensities at 510 nm, during alternate excitation at 340 or 380 nm, were recorded and stored. Following background subtraction, emission ratios (340/380) were calculated off-line using Microsoft Office Excel (Microsoft, Redmond, Wash., US). Where indicated, data were normalised to the first 10 frames to allow further analysis and for comparisons.
# [2] = system: iPS-derived neurons; test: Whole-cell patch-clamp, current clamp: spontaneous action potentials and resting Vm
# Source text: Ag/AgCl electrodes for patch-clamp were produced by leaving pure silver wire in bleach overnight. An Ag/AgCl pellet (Clark Electromedical Instruments) connected to the patch-clamp headstage was used as the bath (reference) electrode. Thin-walled, filamented, borosilicate glass tubes (World-Precision Instruments, UK) were pulled using a two-stage pipette puller (PP-830, Narishige, Japan) to give patch pipettes with a measured tip resistance of 3-6 MΩ when filled with the internal pipette solution. These pipettes were used to establish whole-cell configuration of the patch clamp technique.
# Whole-cell patch-clamp was performed at room temperature. Plated down cells grown on glass coverslips were transferred into a perfusion chamber mounted on the stage of an inverted microscope equipped with phase-contrast optics mounted inside a Faraday cage on an anti-vibration air table (Wentworth Laboratories Ltd., Oxford, UK). Continuous perfusion of the cells with ECS was maintained by a gravity-fed system using a 50 mL disposable syringe as a reservoir. Continuous perfusion was maintained at a rate of approximately 2-4 ml per minute. A gravity-fed rapid solution changer (RSC, RSC-200, Bio-Logic, France) was used to apply various solutions directly to the cells when required allowing for solution changes as fast as 20 ms. Waste solution was removed via vacuum suction through a flame-pulled glass tube connected to a waste Buchner flask with Tygon tubing.
# Current-clamp was used to apply current protocols, generated using Axon Laboratory's pClamp 9 software to the patched cell. These were recorded on-line for further analysis using the pClamp software. Offline data review and analysis was performed using Axon Laboratory's Clampfit 9, Microsoft Office Excel and Prism6. Spontaneous action potentials (sAPs): Cells were held in current clamp with zero current injection for recording of resting membrane potentials (Vm) and observation of any spontaneous action potentials. Recordings were made using the ‘Gap free’ protocol immediately after whole-cell access to reduce the effect of the pipette ICS dialysing with the actual cytosolic solution and thus influencing the resting membrane potential. Recordings were made for approx. 60 s for a mean calculation of Vm and to allow for spontaneous action potentials to be recorded.
# Data from the current step protocols were analysed in Clampfit and exported to Excel for further processing. The average Vm during a 60 s ‘Gap Free’ recording in current clamp was taken as the resting membrane potential. In cells displaying spontaneous activity, an estimation of the baseline was made from the trace.
# [3] = system: neural progenitor cultures; test: Ki67 immunocytochemistry of neural progenitor cultures; details: for Ki67 immunoreactivity: 2 μM PD0332991 or 10 μM DAPT, 3 and 7 days after plating
# Protocol: Cells grown on coverslips as described above were fixed with 4% paraformaldehyde at room temperature for 15 minutes. Cells were permeabilised (0.1% Triton X-100 in phosphate buffered saline) for 20 minutes at room temperature, then blocked in blocking solution (2% normal goat serum, 3% bovine serum albumin, 0.1% Triton X-100 in phosphate buffered saline for one hour. Cells were incubated with primary antibodies (rabbit anti-FOXG1, mouse anti-Sox2 (Abcam), mouse anti-ZOI (Abcam), mouse anti-Nestin (Abcam) anti-KI67 (Sigma) and anti-βIII-Tubulin (Sigma) diluted in the same buffer overnight at 4° C. Coverslips were then washed in 0.1% Triton X-100 in phosphate buffered saline 3 times for 5 minutes each and incubated with secondary antibodies (Goat anti-rabbit alexa 594 or Goat anti-mouse 488 secondary antibodies (1:400, Sigma), as appropriate diluted in blocking buffer. Coverslips were washed as above, mounted onto slides using Vectashield with DAPI and imaged using a Olympus BX61 fluorescence microscope.
# [4] = system: neural progenitors; test: Cyquant cell proliferation assay; details: increasing concentrations; assayed after 3, 6, 9 and 12 days of culture
# Protocol: Cell proliferation in cultures treated with cell cycle and Notch pathway inhibitors were measured using the Cyquant™ Direct Cell Proliferation kit (Invitrogen). Briefly, 1×10^4 neural progenitors were plated per well in black, clear-bottomed 96 well plates (Nunclon) pre-treated with matrigel and cultured in ADF medium supplemented with B27 and small molecule inhibitors such as PD0332991 or DAPT (FIG. 2). Plates were processed according to the manufacturer's instructions and fluorescence Cyquant measurements were taken from triplicate cells on days 3, 6, 9 and 12 of culture using a FLUOstar Optima™ plate reader (BMG Labtech) using FITC (480 nm excitation/535 nm emission) filters in a bottom read fluorescence mode. Each measurement was calibrated by using blank suppression dye as a blank to remove background fluorescence.
# [5] = 1.8 mM Ca2+ or 300 μM GABA vs control medium (0.6 mM Ca2+), weeks 1 and 2
molecule,measurement,setting,value
CN[C@H](CC(=O)O)C(=O)O [NDMA],intracellular Ca2+ response to glutamate receptor agonists,[1],all cells responded similarly
SNX-482,ACM-evoked hyperpolarization (mean Vm),[2],abolished
"C[C@H](NC(=O)Cc1cc(F)cc(F)c1)C(=O)N[C@H](C(=O)OC(C)(C)C)c1ccccc1 [DAPT, N-[N-(3,5-Difluorophenacetyl)-L-alanyl]-S-phenylglycine t-butyl ester]",Ki67 immunoreactivity,[3],more progressive loss of Ki67 immunostaining
same,synchronisation of cell cycle exit and differentiation,[3]; DAPT treatment alone,insufficient to synchronise cell cycle exit and differentiation
same,"cell proliferation (relative Cyquant fluorescence, proportional to cell number)",[4],reduces cell proliferation; also recorded: inhibit neural progenitor proliferation
"NCCCC(=O)O [GABA, γ-aminobutyric acid]",rescue of Vm,[2],evoked a hyperpolarisation
same,mean resting Vm,[2]; [5],as effective as the increased extracellular Ca^2+
same,proportion of cells generating spontaneous activity,[2]; [5],as effective as the increased extracellular Ca^2+; also recorded: partially mimic the effects of ACM
same,intracellular Ca2+ response to GABA in high chloride,[1]; 300 microM GABA in ECS,all neurons responded to GABA in high chloride
same,intracellular Ca2+ response to GABA in low chloride,"[1]; 300 microM GABA, low chloride ECS",few cells responded to GABA in low chloride
"[Ca+2].[Cl-].[Cl-] [Ca^2+, Calcium Chloride]",mean resting Vm,[2],significant hyperpolarisation of mean resting Vm; also recorded: hyperpolarized the Vm
same,proportion of cells generating spontaneous activity,[2],enhancement in the proportion of cells generating spontaneous activity; also recorded: increase in spontaneous activity; also recorded: partially mimic the effects of ACM
CC(=O)c1c(C)c2cnc(Nc3ccc(N4CCNCC4)cn3)nc2n(C2CCCC2)c1=O [PD0332991],Ki67 immunoreactivity,[3],complete loss of Ki67 immunopositive cells
same,"cell proliferation (relative Cyquant fluorescence, proportional to cell number)",[4],concentration-dependent growth arrest; also recorded: inhibit neural progenitor proliferation
Cc1o[nH]c(=O)c1CC(N)C(=O)O (stereo not drawn) [AMPA],intracellular Ca2+ response to glutamate receptor agonists,[1],all cells responded similarly

# Source: US20160257930A1, “NEURONAL STEM CELL DIFFERENTIATION” (priority 2013, published 2016)
